Data as given in ChEMBL document CHEMBL4334456, “Moscatilin Ameliorates Tau Phosphorylation and Cognitive Deficits in Alzheimer's Disease Models” (J Nat Prod, 2019).
Active and inactive are the calls of the source. The rule behind the calls is not given here.

Legend:
[1] = system: SH-SY5Y; experiment: Effect on total tau protein level in human SH-SY5Y cells at 0.1 to 5 uM pretreated for 12 to 24 hrs followed by OA addition and measured after 6 hrs by Western blot analysis; assay type: ADME, cell-based
[2] = Toxicity in ICR mouse assessed as effect on body weight at 25 to 100 mg/kg, ip for 2 weeks; assay type: organism-based; conditions: in vivo, 336 h
[3] = system: SH-SY5Y; experiment: Antioxidant activity in OA-induced human SH-SY5Y cells assessed as decrease in GSH level at 0.1 to 1 uM pretreated for 12 hrs followed by OA addition and measured after 12 hrs; assay type: functional, cell-based
[4] = system: SH-SY5Y; experiment: Cytotoxicity against human SH-SY5Y cells assessed as reduction in cell viability after 24 hrs by MTT assay; assay type: cell-based
[5] = system: N2a; experiment: Cytotoxicity against mouse Neuro2a cells assessed as reduction in cell viability after 24 hrs by MTT assay; assay type: cell-based
[6] = system: Mus musculus; experiment: Anti-alzhemeric activity in scopolamine-induced ICR mouse assessed as inhibition of tau phosphorylation at Ser396 residues in brain at 25 to 100 mg/kg, ip for 2 weeks followed by scopolamine treatment by Western blot analysis; assay type: functional, organism-based
[7] = biological target: Glycogen synthase kinase-3 beta (Mus musculus) (UniProt Q9WV60); experiment: Inhibition of GSK3beta in mouse Neuro2a cells assessed as reduction in tau phosphorylation at S202/T205 residues at 0.1 to 5 uM pretreated for 12 to 24 hrs followed by OA addition and measured after 6 hrs by Western blot analysis; assay type: cell-based
[8] = system: SH-SY5Y; experiment: Effect on total tau protein level in human SH-SY5Y cells harboring with pCAX/FLAG-tagged APP and pRK5/EGFP-tagged Tau P301L mutant at 0.1 to 10 uM after 12 to 24 hrs by Western blot analysis; assay type: ADME, cell-based
[9] = biological target: Glycogen synthase kinase-3 beta (Homo sapiens) (UniProt P49841); experiment: Inhibition of GSK3beta in human SH-SY5Y cells assessed as reduction in tau phosphorylation at S262 residues at 0.1 to 5 uM pretreated for 12 to 24 hrs followed by OA addition and measured after 6 hrs by Western blot analysis; assay type: cell-based
[10] = biological target: Glycogen synthase kinase-3 beta (Homo sapiens) (UniProt P49841); experiment: Inhibition of GSK-3beta in human SH-SY5Y cells harboring with pCAX/FLAG-tagged APP and pRK5/EGFP-tagged Tau P301L mutant assessed as reduction in tau phosphorylation at S404 residues after 12 to 24 hrs by Western blot analysis; assay type: cell-based
[11] = system: SH-SY5Y; experiment: Inhibition of tau aggregation in OA-induced human SH-SY5Y cells at 0.1 to 5 uM pretreated for 24 hrs followed by OA addition and measured after 6 hrs by Western blot analysis; assay type: functional, cell-based
[12] = biological target: c-Jun N-terminal kinase, JNK (Homo sapiens) (UniProt P45983+P53779+P45984); experiment: Inhibition of JNK phosphorylation in OA-induced human SH-SY5Y cells pretreated for 24 hrs followed by OA addition and measured after 6 hrs by Western blot analysis; assay type: cell-based
[13] = biological target: Glycogen synthase kinase-3 beta (Homo sapiens) (UniProt P49841); experiment: Inhibition of GSK-3beta in human SH-SY5Y cells harboring with pCAX/FLAG-tagged APP and pRK5/EGFP-tagged Tau P301L mutant at 0.1 to 10 uM assessed as increase in GSK-3beta phosphorylation at Ser9 residues after 24 hrs by Western blot analysis; assay type: cell-based
[14] = system: SH-SY5Y; experiment: Effect on cell cycle arrest in OA-induced human SH-SY5Y cells assessed as accumulation at sub-G1 phase at 0.1 uM pretreated for 6 hrs followed by OA addition and measured after 16 hrs […] (reference value: 32.28%); assay type: functional
[15] = system: SH-SY5Y; experiment: Inhibition of ERK phosphorylation in OA-induced human SH-SY5Y cells pretreated for 24 hrs followed by OA addition and measured after 6 hrs by Western blot analysis; assay type: cell-based
[16] = system: SH-SY5Y; experiment: Antioxidant activity in OA-induced human SH-SY5Y cells assessed as increase in MDA level at 0.1 to 1 uM pretreated for 12 hrs followed by OA addition and measured after 12 hrs; assay type: functional, cell-based
[17] = system: Mus musculus; experiment: Reversal of scopolamine-induced spatial memory impairment in ICR mouse assessed as decrease in time spent on […] at 25 to 100 mg/kg, ip for 2 weeks followed by scopolamine treatment and measured after 90 mins by Morris water maze test; assay type: functional, organism-based
[18] = biological target: MAP kinase p38 (Homo sapiens) (UniProt O15264+Q15759+Q16539+P53778); experiment: Inhibition of p38 phosphorylation in OA-induced human SH-SY5Y cells pretreated for 24 hrs followed by OA addition and measured after 6 hrs by Western blot analysis; assay type: cell-based
[19] = biological target: Glycogen synthase kinase-3 beta (Mus musculus) (UniProt Q9WV60); experiment: Inhibition of GSK-3beta in mouse Neuro2a cells harboring with pCAX/FLAG-tagged APP and pRK5/EGFP-tagged Tau P301L mutant assessed as reduction in tau phosphorylation at S396 residues after 12 to 24 hrs by Western blot analysis; assay type: cell-based
[20] = system: Mus musculus; experiment: Anti-alzhemeric activity in scopolamine-induced ICR mouse assessed as increase in time spent in the target quadrant at 25 to 100 mg/kg, ip for 2 weeks followed by scopolamine treatment and measured after 90 mins by Morris water maze test; assay type: functional, organism-based
[21] = system: Mus musculus; experiment: Anti-alzhemeric activity in scopolamine-induced ICR mouse assessed as increase in swimming speed at 25 to 100 mg/kg, ip for 2 weeks followed by scopolamine treatment and measured after 90 mins by Morris water maze test; assay type: functional, organism-based
[22] = system: N2a; experiment: Cytotoxicity against mouse Neuro2a cells assessed as reduction in cell viability after 12 hrs by MTT assay; assay type: cell-based
[23] = system: N2a; experiment: Effect on total tau protein level in mouse Neuro2a cells harboring with pCAX/FLAG-tagged APP and pRK5/EGFP-tagged Tau P301L mutant at 0.1 to 10 uM after 12 to 24 hrs by Western blot analysis; assay type: ADME, cell-based
[24] = system: Mus musculus; experiment: Anti-alzhemeric activity in scopolamine-induced ICR mouse assessed as increase in GSK-3beta phosphorylation Ser9 residues in brain at 25 to 100 mg/kg, ip for 2 weeks followed by scopolamine treatment by Western blot analysis; assay type: functional, organism-based
[25] = system: SH-SY5Y; experiment: Cytotoxicity against human SH-SY5Y cells assessed as reduction in cell viability after 12 hrs by MTT assay; assay type: cell-based
[26] = biological target: Glycogen synthase kinase-3 beta (Mus musculus) (UniProt Q9WV60); experiment: Inhibition of GSK-3beta in mouse Neuro2a cells harboring with pCAX/FLAG-tagged APP and pRK5/EGFP-tagged Tau P301L mutant at 0.1 to 10 uM assessed as increase in GSK-3beta phosphorylation at Ser9 residues after 24 hrs by Western blot analysis; assay type: cell-based
[27] = biological target: Glycogen synthase kinase-3 beta (Homo sapiens) (UniProt P49841); experiment: Inhibition of GSK3beta in human SH-SY5Y cells assessed as reduction in tau phosphorylation at S202/T205 residues at 0.1 to 5 uM pretreated for 12 to 24 hrs followed by OA addition and measured after 6 hrs by Western blot analysis; assay type: cell-based
[28] = Toxicity in ICR mouse assessed as effect on body weight at 1 mg/kg, ip for 2 weeks; assay type: organism-based; conditions: in vivo, 336 h
[29] = biological target: Glycogen synthase kinase-3 beta (Homo sapiens) (UniProt P49841); experiment: Inhibition of GSK-3beta in human SH-SY5Y cells assessed as increase in GSK-3beta phosphorylation at Ser9 residues at 0.1 to 5 uM pretreated for 24 hrs followed by OA addition and measured after 6 hrs by Western blot analysis; assay type: cell-based
[30] = system: Mus musculus; experiment: Anti-alzhemeric activity in scopolamine-induced ICR mouse assessed as inhibition of tau phosphorylation at Ser262 residues in brain at 25 to 100 mg/kg, ip for 2 weeks followed by scopolamine treatment by Western blot analysis; assay type: functional, organism-based
[31] = biological target: Glycogen synthase kinase-3 beta (Mus musculus) (UniProt Q9WV60); experiment: Inhibition of GSK3beta in mouse Neuro2a cells assessed as reduction in tau phosphorylation at S262 residues at 0.1 to 5 uM pretreated for 12 to 24 hrs followed by OA addition and measured after 6 hrs by Western blot analysis; assay type: cell-based
[32] = biological target: Glycogen synthase kinase-3 beta (Mus musculus) (UniProt Q9WV60); experiment: Inhibition of GSK-3beta in mouse Neuro2a cells harboring with pCAX/FLAG-tagged APP and pRK5/EGFP-tagged Tau P301L mutant assessed as reduction in tau phosphorylation at S404 residues after 12 to 24 hrs by Western blot analysis; assay type: cell-based
[33] = biological target: Glycogen synthase kinase-3 beta (Homo sapiens) (UniProt P49841); experiment: Inhibition of GSK-3beta in human SH-SY5Y cells harboring with pCAX/FLAG-tagged APP and pRK5/EGFP-tagged Tau P301L mutant at 0.1 to 10 uM assessed as reduction in GSK-3beta phosphorylation at Tyr216 residues after 24 hrs by Western blot analysis; assay type: cell-based
[34] = system: Mus musculus; experiment: Anti-alzhemeric activity in scopolamine-induced ICR mouse assessed as increase in GSK-3beta phosphorylation Ser9 residues in hippocampal CA1 region at 25 to 100 mg/kg, ip for 2 weeks followed by scopolamine treatment by immunohistochemistry-based analysis; assay type: functional, organism-based
[35] = biological target: Glycogen synthase kinase-3 beta (Mus musculus) (UniProt Q9WV60); experiment: Inhibition of GSK-3beta in mouse Neuro2a cells harboring with pCAX/FLAG-tagged APP and pRK5/EGFP-tagged Tau P301L mutant at 0.1 to 10 uM assessed as reduction in GSK-3beta phosphorylation at Tyr216 residues after 24 hrs by Western blot analysis; assay type: cell-based
[36] = biological target: Glycogen synthase kinase-3 beta (Homo sapiens) (UniProt P49841); experiment: Inhibition of GSK-3beta in human SH-SY5Y cells assessed as reduction in GSK-3beta phosphorylation at Tyr216 residues at 0.1 to 5 uM pretreated for 24 hrs followed by OA addition and measured after 6 hrs by Western blot analysis; assay type: cell-based
[37] = system: Mus musculus; experiment: Anti-alzhemeric activity in scopolamine-induced ICR mouse assessed as reduction in tau phosphorylation at S202/T205 residues in hippocampal CA1 region at 25 to 100 mg/kg, ip for 2 weeks followed by scopolamine treatment by immunohistochemistry-based analysis; assay type: functional, organism-based
[38] = system: Mus musculus; experiment: Anti-alzhemeric activity in scopolamine-induced ICR mouse assessed as increase in swimming distance at 25 to 100 mg/kg, ip for 2 weeks followed by scopolamine treatment and measured after 90 mins by Morris water maze test; assay type: functional, organism-based
[39] = biological target: Glycogen synthase kinase-3 beta (Homo sapiens) (UniProt P49841); experiment: Inhibition of GSK-3beta in human SH-SY5Y cells harboring with pCAX/FLAG-tagged APP and pRK5/EGFP-tagged Tau P301L mutant assessed as reduction in tau phosphorylation at S396 residues after 12 to 24 hrs by Western blot analysis; assay type: cell-based
[40] = system: N2a; experiment: Effect on total tau protein level in mouse Neuro2a cells at 0.1 to 5 uM pretreated for 12 to 24 hrs followed by OA addition and measured after 6 hrs by Western blot analysis; assay type: cell-based
[41] = system: Mus musculus; experiment: Anti-alzhemeric activity in scopolamine-induced ICR mouse assessed as inhibition of tau phosphorylation at S202/T205 residues in brain at 25 to 100 mg/kg, ip for 2 weeks followed by scopolamine treatment by Western blot analysis; assay type: functional, organism-based

Chain of Glycogen synthase kinase-3 beta (Mus musculus) (Q9WV60 whole entry, looked up): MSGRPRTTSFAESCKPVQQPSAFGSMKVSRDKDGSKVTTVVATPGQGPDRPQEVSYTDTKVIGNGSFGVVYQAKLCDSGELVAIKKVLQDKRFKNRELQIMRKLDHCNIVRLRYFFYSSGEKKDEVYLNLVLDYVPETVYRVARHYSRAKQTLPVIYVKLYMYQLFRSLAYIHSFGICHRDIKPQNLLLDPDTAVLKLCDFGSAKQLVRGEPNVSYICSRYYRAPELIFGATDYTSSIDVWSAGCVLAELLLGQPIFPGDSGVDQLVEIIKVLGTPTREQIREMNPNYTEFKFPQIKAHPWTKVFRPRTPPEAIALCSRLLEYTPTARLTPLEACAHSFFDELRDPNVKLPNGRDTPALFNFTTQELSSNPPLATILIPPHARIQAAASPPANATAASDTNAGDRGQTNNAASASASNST
Chain of Glycogen synthase kinase-3 beta (Homo sapiens) (P49841 whole entry, looked up): as the sequence (Q9WV60 whole entry, looked up) above, with P390T, A392T, T400A, A402T counted along it

- inhibition [7]: Active
- inhibition [9]: Active
- inhibition [10]: Dose-dependent effect
- inhibition [12]: Dose-dependent effect
- inhibition [13]: Active
- inhibition [18]: Dose-dependent effect
- inhibition [19]: Dose-dependent effect
- inhibition [26]: Active
- inhibition [27]: Active
- inhibition [29]: Active
- inhibition [31]: Active
- inhibition [32]: Dose-dependent effect
- inhibition [33]: Active
- inhibition [35]: Active
- inhibition [36]: Active
- inhibition [39]: Dose-dependent effect
SMILES: COc1cc(CCc2cc(OC)c(O)c(OC)c2)ccc1O [MOSCATILIN]
- Activity [1]: Non-Toxic
- Activity [2]: Non-Toxic
- Activity [3]: Active
- IC50 [4]: > 20 µM
- IC50 [5]: > 20 µM
- Activity [6]: Active
- Activity [8]: Non-Toxic
- inhibition [11]: Active
- Activity [14]: 20.81%
- inhibition [15]: Dose-dependent effect
- Activity [16]: Active
- Activity [17]: Active
- Activity [20]: Active
- Activity [21]: inactive
- IC50 [22]: > 20 µM
- Activity [23]: Non-Toxic
- Activity [24]: Active
- IC50 [25]: > 20 µM
- Activity [28]: Non-Toxic
- Activity [30]: Active
- Activity [34]: Active
- Activity [37]: Active
- Activity [38]: Active
- Activity [40]: Non-Toxic
- Activity [41]: Active
